From publication PMC3073714 (Chemistry and physics of lipids, 2010)

Biological target: T1, DNA topoisomerase IB (LdTopIB) (Leishmania donovani, UniProt A0A3Q8IHS4+Q8WQM6)
T1 sequence (A0A3Q8IHS4 1-635): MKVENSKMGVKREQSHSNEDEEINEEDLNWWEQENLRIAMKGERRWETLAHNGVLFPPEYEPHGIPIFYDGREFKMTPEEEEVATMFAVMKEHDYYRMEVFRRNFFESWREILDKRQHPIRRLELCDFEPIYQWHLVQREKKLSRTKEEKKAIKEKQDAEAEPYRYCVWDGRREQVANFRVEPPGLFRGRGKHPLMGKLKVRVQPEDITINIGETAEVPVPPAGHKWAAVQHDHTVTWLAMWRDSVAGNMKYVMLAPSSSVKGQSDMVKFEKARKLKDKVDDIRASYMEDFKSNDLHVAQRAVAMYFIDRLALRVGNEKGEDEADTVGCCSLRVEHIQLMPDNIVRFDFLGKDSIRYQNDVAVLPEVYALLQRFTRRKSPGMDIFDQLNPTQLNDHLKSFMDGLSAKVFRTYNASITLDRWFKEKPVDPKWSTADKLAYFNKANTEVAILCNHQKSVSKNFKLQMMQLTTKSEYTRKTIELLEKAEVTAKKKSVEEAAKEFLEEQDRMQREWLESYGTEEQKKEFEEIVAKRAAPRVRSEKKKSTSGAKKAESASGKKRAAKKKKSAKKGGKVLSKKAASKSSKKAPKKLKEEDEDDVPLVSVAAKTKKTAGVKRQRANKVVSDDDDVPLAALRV
T1 sequence (Q8WQM6 1-262): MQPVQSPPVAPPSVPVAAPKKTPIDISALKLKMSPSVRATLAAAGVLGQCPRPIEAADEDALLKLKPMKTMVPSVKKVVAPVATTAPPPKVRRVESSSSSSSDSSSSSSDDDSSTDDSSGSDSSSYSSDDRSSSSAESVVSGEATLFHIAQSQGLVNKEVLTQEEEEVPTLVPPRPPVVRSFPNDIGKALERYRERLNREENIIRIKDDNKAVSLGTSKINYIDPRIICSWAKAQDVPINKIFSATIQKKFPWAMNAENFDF
Assay: supercoiled plasmid DNA relaxation assay with purified recombinant enzyme
Format: biochemical

- IC50: 62.3 ± 0.7 µM
SMILES: CC(C)CCC/C=C\CCCCCCCCCC(=O)O [compound 1, (Z)-16-methyl-11-heptadecenoic acid]
